Like-named read-outs stand apart in the source and are kept apart here.

In series [1] the test system is rat. To be noted: ref not given; cited from earlier work.
In series [2] the test system is Hep3B human hepatoma cell line. As to the kind of experiment: cells. The settings on record: read-out: IC50 Hoechst. It is filed as cell-based.
Series [3] deals with Hep3B human hepatoma cell line. As to the kind of experiment: cells. The class given is cell-based. To be noted: read-out: IC50 TMRM.
Series [4] concerns 2D. The settings on record: read-out: IC50 2D (literature review), cited from earlier work.
The subject of series [5] is Hep3B human hepatoma cell line. The experiment in a line: cells. The class given is cell-based. The settings on record: read-out: IC50 mBCl.
In series [6] the test system is Hep3B human hepatoma cell line. The experiment in a line: cells. It is filed as cell-based. To be noted: read-out: IC50 Calcein AM.
The mark [7] stands for this setting: 2D cell culture, ref literature review.

In general, IC50 refers to the concentration that gives 50% inhibition. As for `CC[C@H](C)C(=O)O[C@H]1C[C@@H](C)C=C2C=C[C@H](C)[C@H](CC[C@@H]3C[C@@H](O)CC(=O)O3)[C@H]21` [Lovastatin], in series [1], the “LD50 mg/kg (rat oral)” value was 5000 mg/kg. The IC50 is 188 ± 17.7 µM in series [2] (Homo sapiens, Hep3B, 48 h); 152 ± 6.7 µM in series [3] (Homo sapiens, Hep3B, 48 h); 20 ± 3.7 µM in series [4]; 195 ± 5 µM in series [5] (Homo sapiens, Hep3B, 48 h); 150 µM in series [6] (Homo sapiens, Hep3B, 48 h).
Take `O=C([O-])CC(O)(CC(=O)[O-])C(=O)[O-].[Na+].[Na+].[Na+]` [Sodium citrate]: the half-inhibitory concentration (IC50) in series [2], in series [3], in series [4], in series [5] and in series [6] was above 1400 µM in each case.
Turning to `CC1=CC(=O)c2ccccc2C1=O` [Menadione], the IC50 in series [2] (Homo sapiens, Hep3B, 48 h) is 20 ± 1 µM; in series [3] (Homo sapiens, Hep3B, 48 h), 11.5 ± 2.5 µM; in series [4] (setting [7]), 13.5 ± 3.6 µM; in series [5] (Homo sapiens, Hep3B, 48 h), 15 ± 2.3 µM; in series [6] (Homo sapiens, Hep3B, 48 h), 11 ± 3.8 µM.
`CC/C(=C(\c1ccccc1)c1ccc(OCCN(C)C)cc1)c1ccccc1` [Tamoxifen]: in series [1], the “LD50 mg/kg (rat oral)” value is given as 4100 mg/kg.
As to `CC(=O)Nc1ccc(O)cc1` [Acetaminophen], the IC50 is above 2100 µM in series [2] (Homo sapiens, Hep3B, 48 h); above 2100 µM in series [3] (Homo sapiens, Hep3B, 48 h); 29800 µM in series [4]; above 2100 µM in series [5] (Homo sapiens, Hep3B, 48 h); above 2100 µM in series [6] (Homo sapiens, Hep3B, 48 h).
For the molecule `C=C(C)[C@H]1Cc2c(ccc3c2O[C@@H]2COc4cc(OC)c(OC)cc4[C@@H]2C3=O)O1` [Rotenone], in series [1], the “LD50 mg/kg (rat oral)” value is on record as 30 mg/kg. Also, the IC50 in series [2] (Homo sapiens, Hep3B, 48 h) is 3 µM; in series [3] (Homo sapiens, Hep3B, 48 h), 0.6 ± 0.3 µM; in series [4] (setting [7]), 1.7 ± 1.2 µM; in series [5] (Homo sapiens, Hep3B, 48 h) it was 1.7 ± 0.7 µM; in series [6] (Homo sapiens, Hep3B, 48 h) it was 8 ± 6 µM.

Values taken from paper PMC6347521 (Current protocols in toxicology, 2018).
